Values belong to the compound of their own block, whether it stands above or below them.
Key:
[1] = target: Serine/threonine-protein kinase WNK3 (Homo sapiens) (UniProt Q9BYP7); assay: Selectivity interaction (ProQinase) EUB0000171b WNK3
[2] = test system: T1, Receptor-type tyrosine-protein kinase FLT3 (Homo sapiens), P36888 [D835V]; assay: Selectivity interaction (KinomeScan (DiscoverX)) EUB0001049a FLT3; details: at 1 µM
T1 sequence (whole entry): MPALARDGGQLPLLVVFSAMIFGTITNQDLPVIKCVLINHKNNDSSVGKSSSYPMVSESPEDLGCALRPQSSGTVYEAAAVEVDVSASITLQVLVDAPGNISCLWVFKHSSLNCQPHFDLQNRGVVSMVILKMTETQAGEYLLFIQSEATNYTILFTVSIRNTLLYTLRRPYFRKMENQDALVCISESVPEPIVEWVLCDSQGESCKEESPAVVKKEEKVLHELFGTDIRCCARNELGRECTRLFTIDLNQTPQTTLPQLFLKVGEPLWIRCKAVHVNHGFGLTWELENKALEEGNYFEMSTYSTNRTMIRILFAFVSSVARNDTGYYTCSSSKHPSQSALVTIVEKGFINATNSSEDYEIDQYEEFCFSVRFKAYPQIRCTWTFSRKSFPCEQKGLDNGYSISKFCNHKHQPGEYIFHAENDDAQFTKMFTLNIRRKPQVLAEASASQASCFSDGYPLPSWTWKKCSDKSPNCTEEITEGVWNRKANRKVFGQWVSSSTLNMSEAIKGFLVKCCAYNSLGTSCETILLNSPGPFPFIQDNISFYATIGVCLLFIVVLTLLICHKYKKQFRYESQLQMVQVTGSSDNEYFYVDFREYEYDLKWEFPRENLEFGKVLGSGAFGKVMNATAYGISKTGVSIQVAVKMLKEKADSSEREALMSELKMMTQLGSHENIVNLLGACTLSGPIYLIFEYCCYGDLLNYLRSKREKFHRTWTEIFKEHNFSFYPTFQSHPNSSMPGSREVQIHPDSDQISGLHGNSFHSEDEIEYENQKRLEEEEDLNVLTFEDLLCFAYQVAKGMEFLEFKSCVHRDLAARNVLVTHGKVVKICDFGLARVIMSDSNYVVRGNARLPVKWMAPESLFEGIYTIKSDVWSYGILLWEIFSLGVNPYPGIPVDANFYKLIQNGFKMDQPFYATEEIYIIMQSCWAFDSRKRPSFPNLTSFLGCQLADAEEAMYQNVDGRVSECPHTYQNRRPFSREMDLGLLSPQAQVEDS

[3] = target: Casein kinase II subunit alpha (Homo sapiens, UniProt P68400); assay: Selectivity interaction (Kinase panel (DSF assay)) EUB0001558a CSNK2A1
[4] = target: Transcription initiation factor TFIID subunit 1-like (Homo sapiens) (UniProt Q8IZX4); assay: Selectivity interaction (Bromodomain panel (DSF asssay)) EUB0000270b TAF1L
[5] = target: Mitogen-activated protein kinase kinase kinase kinase 5 (Homo sapiens) (UniProt Q9Y4K4); assay: Selectivity interaction (KinomeScan (DiscoverX)) EUB0000092b MAP4K5; details: at 10 µM
[6] = target: Macrophage-stimulating protein receptor (Homo sapiens, UniProt Q04912); assay: Selectivity interaction (KinomeScan (DiscoverX)) EUB0000092b MST1R; details: at 10 µM
[7] = target: T2, Ephrin type-B receptor 1 (Homo sapiens) (UniProt P54762); assay: Selectivity interaction (KinomeScan (DiscoverX)) EUB0000618a EPHB1; details: at 10 µM
T2 sequence (whole entry): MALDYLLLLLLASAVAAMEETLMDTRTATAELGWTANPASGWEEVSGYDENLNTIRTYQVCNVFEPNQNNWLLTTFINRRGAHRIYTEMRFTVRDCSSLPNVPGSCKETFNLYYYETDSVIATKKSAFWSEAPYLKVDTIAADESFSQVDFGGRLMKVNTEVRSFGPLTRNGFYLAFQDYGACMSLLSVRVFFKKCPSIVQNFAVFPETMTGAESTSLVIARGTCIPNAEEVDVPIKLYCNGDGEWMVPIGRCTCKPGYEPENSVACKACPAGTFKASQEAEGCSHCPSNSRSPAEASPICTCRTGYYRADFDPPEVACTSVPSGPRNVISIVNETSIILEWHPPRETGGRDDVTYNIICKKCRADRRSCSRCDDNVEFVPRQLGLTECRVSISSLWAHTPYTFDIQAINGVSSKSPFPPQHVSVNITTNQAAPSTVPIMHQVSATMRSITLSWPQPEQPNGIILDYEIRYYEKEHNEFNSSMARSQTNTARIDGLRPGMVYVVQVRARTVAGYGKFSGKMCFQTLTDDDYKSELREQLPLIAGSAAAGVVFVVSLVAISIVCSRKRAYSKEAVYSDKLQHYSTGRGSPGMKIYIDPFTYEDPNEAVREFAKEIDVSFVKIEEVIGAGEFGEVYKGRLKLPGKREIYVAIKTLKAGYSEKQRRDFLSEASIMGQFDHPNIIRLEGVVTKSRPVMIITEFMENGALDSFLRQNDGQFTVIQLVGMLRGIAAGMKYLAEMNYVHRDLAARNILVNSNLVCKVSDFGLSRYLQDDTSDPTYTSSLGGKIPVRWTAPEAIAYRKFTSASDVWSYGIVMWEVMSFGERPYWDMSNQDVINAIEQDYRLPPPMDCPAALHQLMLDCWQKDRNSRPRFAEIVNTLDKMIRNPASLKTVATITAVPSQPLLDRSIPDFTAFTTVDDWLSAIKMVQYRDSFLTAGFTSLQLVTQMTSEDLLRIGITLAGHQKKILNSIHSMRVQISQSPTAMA

Serine/threonine-protein kinase WNK3 (Homo sapiens), sequence (Q9BYP7 whole entry): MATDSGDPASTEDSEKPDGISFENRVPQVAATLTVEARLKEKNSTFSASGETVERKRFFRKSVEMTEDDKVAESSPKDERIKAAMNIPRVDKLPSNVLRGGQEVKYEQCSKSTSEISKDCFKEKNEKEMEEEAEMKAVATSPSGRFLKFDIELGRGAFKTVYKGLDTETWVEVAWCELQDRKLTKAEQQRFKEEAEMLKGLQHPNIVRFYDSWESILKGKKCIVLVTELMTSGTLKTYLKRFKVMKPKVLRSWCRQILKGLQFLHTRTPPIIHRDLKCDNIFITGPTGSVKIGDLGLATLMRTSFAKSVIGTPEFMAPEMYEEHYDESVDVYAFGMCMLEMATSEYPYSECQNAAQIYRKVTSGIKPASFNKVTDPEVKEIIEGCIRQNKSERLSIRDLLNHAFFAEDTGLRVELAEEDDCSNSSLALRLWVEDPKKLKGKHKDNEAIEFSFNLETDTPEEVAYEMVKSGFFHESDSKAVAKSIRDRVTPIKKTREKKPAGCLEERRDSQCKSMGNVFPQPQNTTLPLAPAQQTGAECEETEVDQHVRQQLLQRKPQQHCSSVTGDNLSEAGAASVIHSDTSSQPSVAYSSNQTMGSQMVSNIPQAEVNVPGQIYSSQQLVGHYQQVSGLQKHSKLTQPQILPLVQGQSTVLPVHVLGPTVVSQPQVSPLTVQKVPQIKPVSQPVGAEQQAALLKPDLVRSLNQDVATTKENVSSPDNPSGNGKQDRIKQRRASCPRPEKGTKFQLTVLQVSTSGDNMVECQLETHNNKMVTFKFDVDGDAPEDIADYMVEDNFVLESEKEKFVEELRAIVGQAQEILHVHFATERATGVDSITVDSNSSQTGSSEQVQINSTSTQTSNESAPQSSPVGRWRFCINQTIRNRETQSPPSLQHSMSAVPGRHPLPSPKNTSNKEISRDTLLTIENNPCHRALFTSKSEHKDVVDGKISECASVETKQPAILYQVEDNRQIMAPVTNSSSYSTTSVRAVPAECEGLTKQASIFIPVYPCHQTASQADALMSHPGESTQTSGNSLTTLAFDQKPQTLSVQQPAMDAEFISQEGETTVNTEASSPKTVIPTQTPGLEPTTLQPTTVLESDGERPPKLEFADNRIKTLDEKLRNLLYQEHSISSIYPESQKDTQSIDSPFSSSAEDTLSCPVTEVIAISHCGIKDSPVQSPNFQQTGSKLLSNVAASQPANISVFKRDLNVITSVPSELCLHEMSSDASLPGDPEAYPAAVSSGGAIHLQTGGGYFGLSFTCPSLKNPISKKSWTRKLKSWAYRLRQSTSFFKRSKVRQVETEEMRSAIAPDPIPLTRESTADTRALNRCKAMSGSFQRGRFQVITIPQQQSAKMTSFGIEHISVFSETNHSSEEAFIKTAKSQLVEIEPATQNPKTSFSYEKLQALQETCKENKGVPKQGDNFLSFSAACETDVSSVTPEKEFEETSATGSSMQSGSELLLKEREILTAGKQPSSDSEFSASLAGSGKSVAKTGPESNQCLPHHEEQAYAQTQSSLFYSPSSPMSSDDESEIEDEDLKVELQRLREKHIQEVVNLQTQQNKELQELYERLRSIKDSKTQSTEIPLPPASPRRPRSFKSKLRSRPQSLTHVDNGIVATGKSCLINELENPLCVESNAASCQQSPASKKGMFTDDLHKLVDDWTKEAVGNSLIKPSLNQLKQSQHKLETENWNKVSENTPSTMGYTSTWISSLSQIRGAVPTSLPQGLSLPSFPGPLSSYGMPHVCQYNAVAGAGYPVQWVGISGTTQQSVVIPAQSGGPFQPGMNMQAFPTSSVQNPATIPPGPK
Transcription initiation factor TFIID subunit 1-like (Homo sapiens), sequence (Q8IZX4 whole entry): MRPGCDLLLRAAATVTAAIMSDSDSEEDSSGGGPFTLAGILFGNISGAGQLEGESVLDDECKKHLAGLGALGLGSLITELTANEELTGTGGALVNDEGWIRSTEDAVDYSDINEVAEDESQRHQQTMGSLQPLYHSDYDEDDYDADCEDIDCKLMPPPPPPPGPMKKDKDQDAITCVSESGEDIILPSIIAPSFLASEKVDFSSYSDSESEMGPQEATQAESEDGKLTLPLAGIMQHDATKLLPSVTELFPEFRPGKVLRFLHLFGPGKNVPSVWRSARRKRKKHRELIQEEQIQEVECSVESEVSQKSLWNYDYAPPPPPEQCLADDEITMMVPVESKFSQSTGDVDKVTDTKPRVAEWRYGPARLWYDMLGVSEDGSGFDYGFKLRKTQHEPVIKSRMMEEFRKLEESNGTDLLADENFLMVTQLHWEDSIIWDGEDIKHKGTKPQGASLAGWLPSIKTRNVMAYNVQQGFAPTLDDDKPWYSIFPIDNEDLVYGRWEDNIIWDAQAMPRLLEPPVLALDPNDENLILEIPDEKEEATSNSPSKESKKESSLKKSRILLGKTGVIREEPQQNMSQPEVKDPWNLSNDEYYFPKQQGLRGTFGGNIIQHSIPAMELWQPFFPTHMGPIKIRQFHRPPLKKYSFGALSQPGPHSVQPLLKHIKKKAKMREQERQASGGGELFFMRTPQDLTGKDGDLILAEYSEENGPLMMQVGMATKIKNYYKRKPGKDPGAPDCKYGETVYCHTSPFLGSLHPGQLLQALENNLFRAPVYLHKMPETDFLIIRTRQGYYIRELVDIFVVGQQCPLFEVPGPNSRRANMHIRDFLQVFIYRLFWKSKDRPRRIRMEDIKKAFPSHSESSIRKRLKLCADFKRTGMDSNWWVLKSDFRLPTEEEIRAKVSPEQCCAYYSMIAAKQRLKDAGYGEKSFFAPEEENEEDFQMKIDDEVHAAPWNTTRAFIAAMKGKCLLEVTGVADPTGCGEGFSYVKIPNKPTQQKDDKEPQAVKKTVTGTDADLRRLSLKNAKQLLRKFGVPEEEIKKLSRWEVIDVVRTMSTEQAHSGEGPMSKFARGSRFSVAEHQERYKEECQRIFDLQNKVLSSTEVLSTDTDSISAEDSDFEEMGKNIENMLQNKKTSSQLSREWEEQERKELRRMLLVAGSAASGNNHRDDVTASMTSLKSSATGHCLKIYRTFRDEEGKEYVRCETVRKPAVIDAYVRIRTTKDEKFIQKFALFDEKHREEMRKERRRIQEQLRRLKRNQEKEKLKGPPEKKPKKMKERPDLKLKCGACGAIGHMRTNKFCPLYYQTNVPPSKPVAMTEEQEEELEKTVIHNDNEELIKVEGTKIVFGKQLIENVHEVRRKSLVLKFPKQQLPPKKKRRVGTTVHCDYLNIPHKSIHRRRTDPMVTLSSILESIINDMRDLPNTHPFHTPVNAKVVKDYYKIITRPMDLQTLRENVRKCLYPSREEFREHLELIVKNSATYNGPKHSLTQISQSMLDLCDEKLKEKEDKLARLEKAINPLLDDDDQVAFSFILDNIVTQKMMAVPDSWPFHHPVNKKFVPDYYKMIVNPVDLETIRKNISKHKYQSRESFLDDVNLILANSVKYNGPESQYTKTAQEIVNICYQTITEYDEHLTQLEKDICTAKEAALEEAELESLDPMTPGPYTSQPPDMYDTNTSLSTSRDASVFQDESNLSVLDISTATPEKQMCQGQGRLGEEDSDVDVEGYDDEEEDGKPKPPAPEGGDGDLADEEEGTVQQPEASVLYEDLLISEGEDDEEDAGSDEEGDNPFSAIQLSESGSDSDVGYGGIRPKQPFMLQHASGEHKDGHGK
Macrophage-stimulating protein receptor, sequence (Q04912 25-304 limits assumed): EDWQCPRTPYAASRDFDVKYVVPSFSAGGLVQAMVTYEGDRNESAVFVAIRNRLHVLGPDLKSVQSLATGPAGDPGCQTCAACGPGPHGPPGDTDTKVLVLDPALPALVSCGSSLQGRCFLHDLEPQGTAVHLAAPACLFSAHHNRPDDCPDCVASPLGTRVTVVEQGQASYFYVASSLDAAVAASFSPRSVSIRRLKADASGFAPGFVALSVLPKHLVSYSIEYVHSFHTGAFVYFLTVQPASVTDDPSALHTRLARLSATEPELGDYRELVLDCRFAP
Macrophage-stimulating protein receptor, sequence (Q04912 310-1400 limits assumed): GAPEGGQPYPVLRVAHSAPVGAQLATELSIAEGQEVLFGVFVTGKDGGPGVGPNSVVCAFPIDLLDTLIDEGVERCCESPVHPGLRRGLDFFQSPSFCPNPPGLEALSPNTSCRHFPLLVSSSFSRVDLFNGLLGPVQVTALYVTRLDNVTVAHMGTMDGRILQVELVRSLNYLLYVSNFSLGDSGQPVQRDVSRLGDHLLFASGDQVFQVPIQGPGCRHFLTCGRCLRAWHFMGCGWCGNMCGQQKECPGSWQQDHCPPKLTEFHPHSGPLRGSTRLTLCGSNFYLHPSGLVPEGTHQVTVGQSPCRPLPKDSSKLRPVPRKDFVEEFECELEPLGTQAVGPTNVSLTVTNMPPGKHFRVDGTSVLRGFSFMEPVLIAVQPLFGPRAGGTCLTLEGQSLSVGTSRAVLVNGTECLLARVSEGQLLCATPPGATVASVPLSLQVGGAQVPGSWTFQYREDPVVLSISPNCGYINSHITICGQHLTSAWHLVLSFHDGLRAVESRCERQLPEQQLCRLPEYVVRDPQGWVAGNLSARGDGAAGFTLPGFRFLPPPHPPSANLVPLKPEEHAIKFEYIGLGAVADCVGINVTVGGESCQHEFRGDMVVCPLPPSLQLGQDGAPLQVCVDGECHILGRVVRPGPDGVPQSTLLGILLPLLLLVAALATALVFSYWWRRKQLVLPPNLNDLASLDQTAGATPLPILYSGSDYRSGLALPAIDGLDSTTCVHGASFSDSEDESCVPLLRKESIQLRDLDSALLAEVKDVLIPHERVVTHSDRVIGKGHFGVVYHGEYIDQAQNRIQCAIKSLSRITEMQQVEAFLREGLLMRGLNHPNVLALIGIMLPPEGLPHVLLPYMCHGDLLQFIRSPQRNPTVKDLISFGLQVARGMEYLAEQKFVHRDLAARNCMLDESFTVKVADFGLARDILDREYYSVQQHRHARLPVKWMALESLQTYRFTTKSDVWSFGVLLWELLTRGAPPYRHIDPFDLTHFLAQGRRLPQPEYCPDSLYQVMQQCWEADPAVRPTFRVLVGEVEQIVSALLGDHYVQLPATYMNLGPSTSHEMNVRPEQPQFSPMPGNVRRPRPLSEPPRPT

% of control ([1]; at 1 µM): 79%
% of control ([1]; at 5 µM): 67%
SMILES: C=CC(=O)Nc1cccc(C(=O)Nc2ccc(Nc3cc(-c4[nH]c(SC)nc4C)ccn3)cc2)c1

SMILES: COc1cc(Nc2nc(C)cc(-c3cnn4nc(OC)ccc34)n2)cc(C(F)(F)F)c1
% of control [2]: 86%

SMILES: CC(C)(O)[C@H](F)CN1Cc2cc(NC(=O)c3cnn4cccnc34)c(N3CCOCC3)cc2C1=O
dTM [3]: 0.3 K

dTM [4]: -1.79 K
SMILES: Cc1cc(CN)cc(C)c1-c1ncn(C)c1-c1cncn1C

SMILES: CCC(=O)N1CCN(c2ccc(-n3c(=O)ccc4cnc5ccc(-c6cnc7ccccc7c6)cc5c43)cc2C(F)(F)F)CC1
% of control [5]: 8.1%
% of control [6]: 55%

SMILES: O[C@H]1CC[C@H](Nc2ncc3nc(Nc4c(F)cc(F)cc4F)n([C@H]4CCOC4)c3n2)CC1
% of control [7]: 96%
